Key:
mice [1] = details: mouse, in vivo, ip
Method: Supplementary file pbio.1000355.s006.tif: Figure S6 Mouse locomotion activity. To determine whether spadin induced a change in locomotor activity, mice (n = 8 per group) were injected with the saline solution or spadin (10^−5M in 100 µl bolus, i.p.) 30 min before starting the test session. Locomotor activity was monitored individually for 24 h using an infrared photobeam activity monitoring system (Imetronic, Pessac, France), which measured consecutive horizontal beam breaks. Testing was in transparent plastic cages (43×2 0×20 cm^3) with fresh bedding in a grid of 8 cm horizontal infrared beams. Locomotor activity was defined as breaking of consecutive photobeams. Mice were given 1 h habituation session before being treated with spadin or saline. Movements were recorded and totalized for each 5 min period during the first hour and then by 10 min time sections for the next 23 h. Six periods were pooled to obtain data for 1 h of time. Different movements were monitored: the coming-and-going between the back and the front of the cage, climbing, and other movements in the back or the front of the cage. Data are the mean value of 8 animals per condition, bars represent SEM. Mice were kept under standard laboratory conditions: 12∶12 light-dark cycle with free access to food and water during the experiment. […] (0.53 MB TIF) Click here for additional data file.

[2] = system: corticosterone (HPA axis); assay: Stress-induced serum corticosterone levels; assay type: in vivo, mouse; details: fluoxetine i.p. 3 mg/kg, 30 min after 10 min tube restraint, vs saline; n = 10
Method: Mice were individually housed for at least 12 h before blood sample collection. Serum samples, collected in the morning, were obtained by retroorbital puncture before and 30 min after the end of a 10 min tube restraint. Levels of corticosterone were measured by radioimmunoassay using a commercially available kit (MP Biomedicals).

mice [3] = assay: Forced Swimming Test (FST), mice; assay type: in vivo, mouse
Method: Porsolt forced swim test (FST). Mice (Janvier, France) were placed individually in cylinders (height: 30 cm, diameter: 15 cm) filled with 12 cm deep water (temperature: 22 ±1°C) for 6 min. The total period of immobility was recorded during the last 4 min.

mice [4] = assay: Novelty Suppressed Feeding test (NSF), mice; assay type: in vivo, mouse; details: 4 d; spadin i.v. 10^−6 M, fluoxetine i.p. 3 mg/kg; vs saline
Method: Novelty–suppressed feeding test (NSF). NSF paradigm is a conflict test that elicits competing motivations: the drive to eat and the fear of venturing into the center of a bright arena. Latency to begin eating is used as an index of anxiety- and depression- like behavior. After 4 day treatment (saline or spadin, i.v.) and 24 hours food-deprivation, mice were presented with a food pellet placed in the center of a brightly plastic box (50 x 50 x 20 cm). Latency to begin eating was measured as previously described.

mice [5] = assay: Tail Suspension Test (TST), mice; assay type: in vivo, mouse; details: 4-d fluoxetine 3 mg/kg, vs saline, p>0.05
Method: Tail suspension test (TST). Mice were suspended by the tail. […] The immobility time was recorded during a 6 min test session.

TREK-1 channel = assay: Whole-cell patch-clamp, hippocampal CA3 pyramidal neurons in brain slices, wild-type mice; assay type: cell-based, mouse; details: no aa; spadin n = 8, fluoxetine n = 5; mean ± SEM; unpublished data
TREK-1 [6] = assay: Whole-cell patch-clamp, cultured hippocampal pyramidal neurons; assay type: cell-based, mouse
Method: Cortical neurons were prepared from 14 old mouse embryos, whereas hippocampal neurons were prepared from newborn mice. Briefly, dissected brain areas were dissociated and neurons were plated on polylysine-treated 35 or 60 mm dishes and maintained in culture in Neurobasal medium supplemented with B27, Glutamax, and antibiotics for 2 to 3 wk before to be used for electrophysiological or biochemical experiments.
Supplementary file pbio.1000355.s004.tif: Figure S4 Effects of spadin on cultured pyramidal neurons from hippocampus. (A) Cultured pyramidal neuron from hippocampus, with on top, the patch-clamp pipette. Neurons were chosen according to their morphology. (B) Current recorded in response to ramps of potential obtained in the various conditions indicated (aa, arachidonic acid: 10 µM; Spadin: 1 µM; Fluoxetine: 20 µM). Neurons were recorded in the whole-cell configuration of the patch-clamp technique. In voltage-clamp, ramps of potential from −90 mV to 70 mV were applied every 10 s. The % variation of the current amplitude was always measured at −50 mV. The currents were recorded in response to such ramps in control conditions and in the presence of a cocktail of potassium blockers suitable to isolate the TREK currents (10 mM tetraethyl ammonium (TEA), 3 mM 4-aminopyridine (4-AP), 50 nM charybdotoxin, 10 µM glibenclamide, 100 nM apamin). […] The blocks were reversible. (C) Time course of spadin and fluoxetine effects. Applications are indicated by the horizontal bars. (2.03 MB TIF) Click here for additional data file.

[7] = system: BrdU-positive cells in mouse hippocampus; assay: Hippocampal neurogenesis (BrdU labeling); assay type: in vivo
Method: Twenty-four hours after the injection of BrdU (120 mg per kg of body weight in a 300 µl bolus), mice were euthanized and transcardially perfused with 4% cold paraformaldehyde. Serial sections of the brains were cut (40 µm) throughout the entire hippocampus on a vibratome (Leica). Every sixth section throughout the hippocampus was processed for BrdU or DCX immunohistochemistry, as previously described. For each immunodetection, slides were first incubated overnight at 4°C with a mouse monoclonal anti-BrdU antibody (1∶200; Becton-Dickinson) or a goat anti-DCX (1∶400; Santa Cruz Laboratories). For chromogenic immunodetection, sections were then incubated for 1 h in biotin-conjugated species-specific secondary antibodies (1∶100; Vector Laboratories) followed by a peroxidase-avidin complex solution according to the manufacturer's protocol. The peroxidase activity of immune complexes was visualized with DAB staining using the VectaStain ABC kit (Vector Laboratories). […] All BrdU-labeled cells in the granular cell layer and SGZ were counted in each section (n = 10 and 5 mice per group) at 400× and 1,000× magnification under a light microscope (Olympus) by an experimenter blinded to the study code. […]

mice [8] = assay: Staircase test; assay type: in vivo, mouse; details: spadin i.p. 10^−5 M or diazepam i.p. 0.5 mg/kg, 30 min before test, vs saline; n = 10
Method: Stair case test. The apparatus comprised an enclosed staircase consisted of five identical steps (2.5 cm in height X 11 cm in width X 7.5 cm in length), each made of black plastic. The height of the walls was constant (12.5 cm above the stairs) along the entire length of the staircase. Each mouse was placed individually on the floor of the staircase with its back to the staircase. A step was considered climbed only if the mouse placed all four paws on it. Rearing was recorded when the mouse rose on its hind legs either on the step or against the wall. The number of steps ascended and the number of rearings made in a 3-min period were recorded. Results were expressed as ratio of rearing/step numbers.

mice [9] = assay: Light/dark exploration test; assay type: in vivo, mouse; details: spadin i.p. 10^−5 M or diazepam i.p. 0.5 mg/kg, 30 min before test, vs saline; n = 10
Method: Light/dark exploration. The apparatus consisted of a cage (25X40X20 cm) divided into two compartments by a black partition containing a small opening that allows mouse to move from one compartment to the other. One compartment, comprising […] of the surface area, was made of white plastic and was brightly illuminated. The adjoining smaller compartment was black and dark. Mice were placed in the white compartment and allowed to move freely between the two chambers for 5 minutes. The number of transitions between the two compartments, time spent in the white chamber, and latency to the first transition were recorded. Mice tend to avoid the white compartment. Thus the measures of exploration in this area (time and entrances) were used as experimental indices of anxiety.

mice [10] = assay: Elevated plus-maze; assay type: in vivo, mouse; details: spadin i.p. 10^−5 M or diazepam i.p. 0.5 mg/kg, 30 min before test, vs saline; n = 10
Description: Elevated plus-maze. The apparatus consisted of two open and two enclosed arms of the same size (45x5 cm) with walls 15 cm high. The arms, constructed of black acrylic, radiate from a common central platform (5x5 cm) to form a plus sign. Open arms were arranged opposite to one another, as were closed arms. The maze was elevated to a height of 45 cm above floor level. Each mouse was placed in the central platform facing one of the open arms. The number of entries into the open and closed arms and the time spent on the open and closed arms were recorded during a 5 min test period. Time spent in the unprotected open arms as well as the number of entries in open arms in relation to the total of arm entries are used as experimental indices of anxiety.

TREK-1 [11] = molecular target: T1, TREK-1 (Mus musculus, UniProt P97438); assay: Competition binding, 125I-spadin, TREK-1 transfected COS-7 cell homogenates; parameters: expressed in transfected cells; host or cells: COS-7 cells, DEAE-dextran transfection; details: competition, 10^−10 to 10^−5M
T1 sequence (P97438 1-426): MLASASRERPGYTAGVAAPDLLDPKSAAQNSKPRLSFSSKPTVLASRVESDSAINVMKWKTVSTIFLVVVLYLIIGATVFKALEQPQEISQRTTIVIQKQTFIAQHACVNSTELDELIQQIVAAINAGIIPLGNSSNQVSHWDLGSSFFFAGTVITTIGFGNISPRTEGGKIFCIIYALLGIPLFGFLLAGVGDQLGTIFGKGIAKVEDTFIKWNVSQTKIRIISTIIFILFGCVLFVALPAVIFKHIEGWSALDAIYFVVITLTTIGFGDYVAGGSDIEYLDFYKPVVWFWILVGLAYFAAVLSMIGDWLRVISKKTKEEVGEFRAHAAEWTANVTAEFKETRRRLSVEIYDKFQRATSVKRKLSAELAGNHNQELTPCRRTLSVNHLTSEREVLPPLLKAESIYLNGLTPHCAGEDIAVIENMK
Method: For competition experiments, homogenates from TREK-1 transfected COS-7 or C13NJ cells were incubated with 0.2 nM ^125I-spadin or ^125I-NT (200,000 cpm in 250 µl) iodinated and purified as previously described. Incubations were performed in 50 mM Tris-HCl, pH 7.4 containing 0.1% BSA in the presence of increasing concentrations of non-radioactive spadin or NT (10^−10 to 10^−5M). Incubations were terminated by addition of 2 ml of ice-cold binding buffer followed by filtration through cellulose acetate filters (Sartorius, Göttingen, Germany) and washing twice with 2 ml of ice-cold buffer. Radioactivity on filters was counted with a gamma-counter.

C13NJ cells = assay: C13NJ wound-healing (cell migration) assay; assay type: cell-based; details: 10 nM NT in serum free medium; without spadin, or (spadin line) with 1 µM spadin; unstimulated 4%±1%
Description: A cell-free zone was created within a semi-confluent monolayer of microglial culture by scratching cells off with a pipette tip. We analyzed by time-lapse microscopy how cells repopulated the cell-free zone, as already described. Supplementary file pbio.1000355.s001.tif: Figure S1 […] wound-healing assay. A cell-free zone was created within a semi-confluent monolayer with a pipette tip. We analyzed by time-lapse microscopy how cells repopulated the cell-free zone. The 100% of migrating cells was calculated by stimulation of cell migration with 10% of Fetal Calf Serum (FCS). (0.13 MB TIF) Click here for additional data file.

CNCCC(Oc1ccc(C(F)(F)F)cc1)c1ccccc1 (stereo not shown) [fluoxetine]
locomotor activity (mice [1]): Neither spadin nor fluoxetine had any effect on mouse locomotion | reduction of stress-induced increase in corticosterone levels [2]: 59.1% | effect of subchronic treatment (mice [3]; 4-d fluoxetine 3 mg/kg, FST, vs saline, p>0.05): no effect | reduction of time of immobility, chronic treatment (mice [3]; 15 d, i.v. once a day, spadin 10^−6 M, fluoxetine 1 mg/kg, vs saline p<0.001, n = 8): around 30% | latency to feed (mice [4]): no effect | effect of subchronic treatment (mice [5]): no effect | inhibition of current recorded in presence of potassium blockers, peptide/drug alone (TREK-1 channel): 13.0%±3.8% | block of arachidonic acid-evoked current (TREK-1 [6]; 20 µM fluoxetine, 10 µM aa, at −50 mV): fully blocked | reversibility of block (TREK-1 [6]; spadin 1 µM and fluoxetine 20 µM): reversible | number of BrdU-positive cells ([7]; 4-d fluoxetine): no effect on neurogenesis | number of BrdU-positive cells ([7]; 15 d treatment, spadin 10^−5 M or fluoxetine, n = 5): significant increase in the number of BrdU-positive cells

CN1C(=O)CN=C(c2ccccc2)c2cc(Cl)ccc21 [diazepam]
rearing/step numbers ratio (mice [8]): decrease of the rearing/step numbers ratio | light/dark transitions (mice [9]): significantly induced an increase in the number of light/dark transitions | time spent in the open arms (mice [10]): significantly reduced the time spent into the aversive open arms

neurotensin [NT]
displacement of 125I-spadin binding (TREK-1 [11]): unable to displace the binding of ^125I-spadin | number of cells that migrated, % of migrating cells in presence of 10% FCS (C13NJ cells): 35.1%±2.3%

— article PMC2854129, “Spadin, a Sortilin-Derived Peptide, Targeting Rodent TREK-1 Channels: A New Concept in the Antidepressant Drug Design” (PLoS Biology, 2010)
